Experimental data from ChEMBL document CHEMBL3856212, “Synthesis, anti-proliferative and genotoxicity studies of 6-chloro-5-(2-substituted-ethyl)-1,3-dihydro-2H-indol-2-ones and 6-chloro-5-(2-chloroethyl)-3-(alkyl/ary-2-ylidene)indolin-2-ones” (Eur J Med Chem, 2016).

Experiments:
[1] = Induction of apoptosis in mouse EAC cells at 500 uM after 24 hrs by acridine orange dye-based fluorescence microscopy (reference value: 0.66 +/- 0.33%); assay type: cell-based; details: ehrlich
[2] = Cytotoxicity against human LOXIMVI cells assessed as assessed as growth inhibition at 10^-5 M after 48 hrs by SRB assay relative to control; assay type: functional; details: LOX IMVI, read-out: GI
[3] = Cytotoxicity against human SR cells assessed as growth inhibition after 48 hrs by SRB assay; assay type: functional
[4] = Cytotoxicity against human MDA-MB-435 cells assessed as assessed as growth inhibition at 10^-5 M after 48 hrs by SRB assay relative to control; assay type: functional; details: MDA-MB-435, 48 h, read-out: GI
[5] = Induction of apoptosis in mouse EAC cells at 125 uM after 24 hrs by acridine orange dye-based fluorescence microscopy (reference value: 0.66 +/- 0.33%); assay type: cell-based; details: ehrlich
[6] = Cytotoxicity against human SF295 cells assessed as assessed as growth inhibition at 10^-5 M after 48 hrs by SRB assay relative to control; assay type: functional; details: SF-295, 48 h, read-out: GI
[7] = Cytotoxicity against human RXF393 cells assessed as assessed as growth inhibition at 10^-5 M after 48 hrs by SRB assay relative to control; assay type: functional; details: RXF 393, 48 h, read-out: GI
[8] = Cytotoxicity against human A498 cells assessed as assessed as growth inhibition at 10^-5 M after 48 hrs by SRB assay relative to control; assay type: functional; details: A498, 48 h, read-out: GI
[9] = Cytotoxicity against human NCI-H522 cells assessed as growth inhibition after 48 hrs by SRB assay; assay type: functional; details: NCI-H522, 48 h
[10] = Cytotoxicity against human OVCAR3 cells assessed as growth inhibition after 48 hrs by SRB assay; assay type: functional; details: OVCAR-3, 48 h
[11] = Cytotoxicity against human SK-MEL-5 cells assessed as growth inhibition after 48 hrs by SRB assay; assay type: functional; details: SK-MEL-5, 48 h
[12] = Cytotoxicity against human CCRF-CEM cells assessed as growth inhibition after 48 hrs by SRB assay; assay type: functional
[13] = Cytotoxicity against human Caki1 cells assessed as growth inhibition after 48 hrs by SRB assay; assay type: functional; details: CAKI-1, 48 h
[14] = Cytotoxicity against human 786-0 cells assessed as assessed as growth inhibition at 10^-5 M after 48 hrs by SRB assay relative to control; assay type: functional; details: 786-0, 48 h, read-out: GI
[15] = Cytotoxicity against human HT-29 cells assessed as growth inhibition after 48 hrs by SRB assay; assay type: functional; details: HT-29, 48 h
[16] = Cytotoxicity against human SF295 cells assessed as growth inhibition after 48 hrs by SRB assay; assay type: functional; details: SF-295, 48 h
[17] = Cytotoxicity against human KM12 cells assessed as growth inhibition after 48 hrs by SRB assay; assay type: functional; details: KM12, 48 h
[18] = Cytotoxicity against human SK-MEL-2 cells assessed as growth inhibition after 48 hrs by SRB assay; assay type: functional; details: SK-MEL-2, 48 h
[19] = Cytotoxicity against human HCT15 cells assessed as assessed as growth inhibition at 10^-5 M after 48 hrs by SRB assay relative to control; assay type: functional; details: HCT-15, 48 h, read-out: GI
[20] = Cytotoxicity against human SN12C cells assessed as assessed as growth inhibition at 10^-5 M after 48 hrs by SRB assay relative to control; assay type: functional; details: read-out: GI
[21] = Cytotoxicity against human OVCAR8 cells assessed as growth inhibition after 48 hrs by SRB assay; assay type: functional; details: OVCAR-8, 48 h
[22] = species: Mus musculus; assay: Genotoxicity in mouse EAC cells at 125 uM after 24 hrs by micronucleus assay (reference value: 3.5 +/- 0.30%); assay type: toxicity, cell-based; details: ehrlich
[23] = Cytotoxicity against human NCI-H522 cells assessed as assessed as growth inhibition at 10^-5 M after 48 hrs by SRB assay relative to control; assay type: functional; details: NCI-H522, 48 h, read-out: GI
[24] = Cytotoxicity against human RPMI8226 cells assessed as growth inhibition after 48 hrs by SRB assay; assay type: functional; details: RPMI-8226, 48 h
[25] = Cytotoxicity against human DU145 cells assessed as growth inhibition after 48 hrs by SRB assay; assay type: functional; details: DU-145, 48 h
[26] = Induction of apoptosis in mouse EAC cells at 250 uM after 24 hrs by acridine orange dye-based fluorescence microscopy (reference value: 0.66 +/- 0.33%); assay type: cell-based; details: ehrlich
[27] = Cytotoxicity against human M14 cells assessed as assessed as growth inhibition at 10^-5 M after 48 hrs by SRB assay relative to control; assay type: functional; details: M14, 48 h, read-out: GI
[28] = Cytotoxicity against human EKVX cells assessed as growth inhibition after 48 hrs by SRB assay; assay type: functional
[29] = Cytotoxicity against human SK-MEL-28 cells assessed as growth inhibition after 48 hrs by SRB assay; assay type: functional; details: SK-MEL-28, 48 h
[30] = Cytotoxicity against human SF539 cells assessed as growth inhibition after 48 hrs by SRB assay; assay type: functional; details: SF-539, 48 h
[31] = Cytotoxicity against human COLO205 cells assessed as growth inhibition after 48 hrs by SRB assay; assay type: functional; details: COLO 205, 48 h
[32] = Cytotoxicity against human BT549 cells assessed as assessed as growth inhibition at 10^-5 M after 48 hrs by SRB assay relative to control; assay type: functional; details: BT-549, 48 h, read-out: GI
[33] = Cytotoxicity against human NCI-H226 cells assessed as growth inhibition after 48 hrs by SRB assay; assay type: functional; details: NCI-H226, 48 h
[34] = Cytotoxicity against human A549 cells assessed as assessed as growth inhibition at 10^-5 M after 48 hrs by SRB assay relative to control; assay type: functional; details: A549, 48 h, read-out: GI
[35] = read-out: LD50 (the source's name)

`O=C1Cc2cc(CCn3cncn3)c(Cl)cc2N1` showed an Activity [1] of 0.36%, an inhibition of growth at 10 µM [2] of 19% and a GI50 [3] of 1000 nM. The TGI [3] was greater than 1000 nM, the CC50 [3, 35] was greater than 1000 nM and the inhibition of growth at 10 µM [4] was 65.6%. It also gave an Activity [5] of 0.6%, an inhibition of growth at 10 µM [6] of 30.7% and an inhibition of growth at 10 µM [7] of 38%. For the same compound, the inhibition of growth at 10 µM [8] was 52.9%, the GI50 [9] was 5290 nM and the TGI [9] was greater than 1000 nM. For the same compound, the CC50 [9, 35] was greater than 1000 nM, the GI50 [10] was 1000 nM and the TGI [10] was greater than 1000 nM. For the same compound, the CC50 [10, 35] was greater than 1000 nM, the GI50 [11] was 1010 nM and the TGI [11] was greater than 1000 nM. It also gave a CC50 [11, 35] greater than 1000 nM, a GI50 [12] of 3500 nM and a TGI [12] greater than 1000 nM. For the same compound, the CC50 [12, 35] was greater than 1000 nM, the GI50 [13] was 8350 nM and the TGI [13] was greater than 1000 nM. For the same compound, the CC50 [13, 35] was greater than 1000 nM, the inhibition of growth at 10 µM [14] was 5.34% and the GI50 [15] was 1000 nM. For the same compound, the TGI [15] was greater than 1000 nM, the CC50 [15, 35] was greater than 1000 nM and the GI50 [16] was 3710 nM. The TGI [16] was greater than 1000 nM, the CC50 [16, 35] was greater than 1000 nM and the GI50 [17] was 5420 nM. The TGI [17] was greater than 1000 nM, the CC50 [17, 35] was greater than 1000 nM and the GI50 [18] was 1240 nM. The TGI [18] was greater than 1000 nM, the CC50 [18, 35] was greater than 1000 nM and the inhibition of growth at 10 µM [19] was 45.4%. For the same compound, the inhibition of growth at 10 µM [20] was 44.2%, the GI50 [21] was 6940 nM and the TGI [21] was greater than 1000 nM. The CC50 [21, 35] was greater than 1000 nM, the Activity [22] was 3.27% and the inhibition of growth at 10 µM [23] was 67.2%. The GI50 [24] was 1000 nM, the TGI [24] was greater than 1000 nM and the CC50 [24, 35] was greater than 1000 nM. The GI50 [25] was 1000 nM, the TGI [25] was greater than 1000 nM and the CC50 [25, 35] was greater than 1000 nM. The Activity [26] was 0.63%, the inhibition of growth at 10 µM [27] was 76% and the GI50 [28] was 8250 nM. For the same compound, the TGI [28] was greater than 1000 nM, the CC50 [28, 35] was greater than 1000 nM and the GI50 [29] was 2100 nM. For the same compound, the TGI [29] was greater than 1000 nM, the CC50 [29, 35] was greater than 1000 nM and the GI50 [30] was 1000 nM. The TGI [30] was greater than 1000 nM, the CC50 [30, 35] was greater than 1000 nM and the GI50 [31] was 2330 nM. It also gave a TGI [31] greater than 1000 nM, a CC50 [31, 35] greater than 1000 nM and an inhibition of growth at 10 µM [32] of 32%. It also gave a GI50 [33] of 1000 nM, a TGI [33] greater than 1000 nM and a CC50 [33, 35] greater than 1000 nM. It also gave an inhibition of growth at 10 µM [34] of 40.2%.
